Data reported in US9051317B2, “Azaindoles as respiratory syncytial virus antiviral agents” (JANSSEN SCIENCES IRELAND UC, priority 2010, dated 2015).
Where two headings read alike, the source gives them in different places.

Experiments:
rgRSV224 virus = assay: microbe, parasite or virus in culture; format: cell-based, respiratory syncytial virus (RSV); details: for EC50: read-out: WT activity EC50; for SI CC50/EC50: selectivity index, CC50 (HeLa cytotoxicity) / EC50 (rgRSV224)
Method: (§1) Black 96-well clear-bottom microtiter plates (Corning, Amsterdam, The Netherlands) were filled in duplicate using a customized robot system with serial 4-fold dilutions of compound in a final volume of 50 μl culture medium [RPMI medium without phenol red, 10% FBS, 0.04% gentamycin (50 mg/mL) and 0.5% DMSO]. Then, 100 μl of a HeLa cell suspension (5×10^4 cells/mL) in culture medium was added to each well followed by the addition of 50 μl rgRSV224 (MOI=0.02) virus in culture medium using a multidrop dispenser (Thermo Scientific, Erembodegem, Belgium). rgRSV224 virus is an engineered virus that includes an additional GFP gene (Hallak et al, 2000) and was in-licensed from the NIH (Bethesda, Md., USA). Medium, virus- and mock-infected controls were included in each test. Cells were incubated at 37° C. in a 5% CO2 atmosphere. Three days post-virus exposure, viral replication was quantified by measuring GFP expression in the cells by a MSM laser microscope (Tibotec, Beerse, Belgium). The EC50 was defined as the 50% inhibitory concentration for GFP expression. In parallel, compounds were incubated for three days in a set of white 96-well microtitier plates (Corning) and the cytotoxicity of compounds in HeLa cells was determined by measuring the ATP content of the cells using the ATPlite kit (PerkinElmer, Zaventem, Belgium) according to the manufacturer's instructions. The CC50 was defined as the 50% concentration for cytotoxicity.

[1] = Cytotoxicity in HeLa cells, ATP content (ATPlite kit); format: cell-based; details: human, Table 1, three days incubation, read-out: Toxicity CC50
Method: as §1

[2] = human respiratory syncytial virus, HeLa, 72 h
[3] = Table 2, rgRSV224 in HeLa cells, MOI 0.02, three days post-virus exposure, GFP expression

Compound `O=c1n(Cc2cc3cnccc3n2CCCCO)c2cnccc2n1C1CC1` [Compound P1, 1-Cyclopropyl-3-{[1-(4-hydroxybutyl)-1H-pyrrolo[3,2-c]pyridin-2-yl]methyl}-1,3-dihydro-2H-imidazo[4,5-c]pyridin-2-one] has an EC50 (rgRSV224 virus; [2]) of 1.05 nM and a CC50 at 3 days [1] of over 98400 nM.

With `O=c1n(Cc2cc3nc(Cl)ccc3n2CCCCO)c2cnccc2n1C1CC1` [Compound P2, 3-{[5-Chloro-1-(4-hydroxybutyl)-1H-pyrrolo[3,2-b]pyridin-2-yl]methyl}-1-cyclopropyl-1,3-dihydro-2H-imidazo[4,5-c]pyridin-2-one] the EC50 (rgRSV224 virus; [2]) was 15.6 nM and the CC50 at 3 days [1] was over 9840 nM.

`CC(C)CCn1c(Cn2c(=O)n(C3CC3)c3ccncc32)cc2ncccc21` [Compound P3, 1-Cyclopropyl-3-{[1-(3-methylbutyl)-1H-pyrrolo[3,2-b]pyridin-2-yl]methyl}-1,3-dihydro-2H-imidazo[4,5-c]pyridin-2-one] showed an EC50 (rgRSV224 virus; [2]) of 62.9 nM and a CC50 at 3 days [1] of 68000 nM.

Work on `O=c1n(Cc2cc3ccncc3n2CCCCO)c2cnccc2n1C1CC1` [Compound P4, 1-Cyclopropyl-3-{[1-(4-hydroxybutyl)-1H-pyrrolo[2,3-c]pyridin-2-yl]methyl}-1,3-dihydro-2H-imidazo[4,5-c]pyridin-2-one] yielded an EC50 (rgRSV224 virus; [2]) of 129 nM and a CC50 at 3 days [1] of over 9840 nM.

Work on `O=c1n(Cc2cc3ncccc3n2CCCCO)c2cnccc2n1C1CC1` [Compound P5, 1-Cyclopropyl-3-{[1-(4-hydroxybutyl)-1H-pyrrolo[3,2-b]pyridin-2-yl]methyl}-1,3-dihydro-2H-imidazo[4,5-c]pyridin-2-one] yielded an EC50 (rgRSV224 virus; [2]) of 160 nM and a CC50 at 3 days [1] of over 98400 nM.

`COc1ccc2c(cc(Cn3c(=O)n(C4CC4)c4ccncc43)n2CCCCO)n1` [Compound P6, 1-Cyclopropyl-3-{[1-(4-hydroxybutyl)-5-methoxy-1H-pyrrolo[3,2-b]pyridin-2-yl]methyl}-1,3-dihydro-2H-imidazo[4,5-c]pyridin-2-one] showed an EC50 (rgRSV224 virus; [2]) of 220 nM and a CC50 at 3 days [1] of over 9840 nM.

With `O=c1n(Cc2cc3nc(Cl)ccc3n2CCCC(F)(F)F)c2cnccc2n1C1CC1` [Compound P40] the EC50 (rgRSV224 virus; [3]) was 2.7 nM and the “SI CC50/EC50” value (rgRSV224 virus; Table 2) was over 37045.

With `O=c1n(Cc2cc3nc(Cl)ccc3n2CCCCF)c2cnccc2n1C1CC1` [Compound P42, 3-((5-chloro-1-(4-fluorobutyl)-1H-pyrrolo[3,2-b]pyridin-2-yl)methyl)-1-cyclopropyl-1H-imidazo[4,5-c]pyridin-2(3H)-one] the “SI CC50/EC50” value (rgRSV224 virus; Table 2) was 17031 and the EC50 (rgRSV224 virus; [2]) was 2.84 nM.

In the case of `O=c1n(Cc2cc3nc(Cl)ccc3n2CCCC(F)(F)F)c2ccccc2n1C1CC1` [Compound P43], the EC50 (rgRSV224 virus; [3]) is reported as 69.2 nM and the “SI CC50/EC50” value (rgRSV224 virus; Table 2) is reported as 1291.

With `O=c1n(Cc2cc3nc(Cl)ccc3n2CCCCF)c2cnc(Cl)cc2n1C1CC1` [Compound P44] the “SI CC50/EC50” value (rgRSV224 virus; Table 3) was 620 and the EC50 (rgRSV224 virus; [2]) was 17.9 nM.

With `O=c1n(Cc2cc3ncccc3n2CCCCF)c2cnccc2n1C1CC1` [Compound P45] the EC50 (rgRSV224 virus; [3]) was 42.9 nM and the “SI CC50/EC50” value (rgRSV224 virus; Table 2) was over 2332.

For `O=c1n(Cc2cc3nc(C(F)(F)F)ccc3n2CCCCF)c2cnccc2n1C1CC1` [Compound P46], the EC50 (rgRSV224 virus; [3]) was 132 nM and the “SI CC50/EC50” value (rgRSV224 virus; Table 2) was over 755.

For `O=c1n(Cc2cc3nc(Cl)ccc3n2CCCCF)c2cc(F)ccc2n1CC(F)(F)F` [Compound P47], the EC50 (rgRSV224 virus; [3]) was 138 nM and the “SI CC50/EC50” value (rgRSV224 virus; Table 2) was over 720.

For `O=c1n(Cc2cc3nc(Cl)ccc3n2CCCCF)c2cnccc2n1CC(F)(F)F` [Compound P48], the EC50 (rgRSV224 virus; [3]) was 7.36 nM and the “SI CC50/EC50” value (rgRSV224 virus; Table 2) was 10490.

For `O=c1n(Cc2cc3nc(Cl)ccc3n2CCCC(F)(F)F)c2cnccc2n1CC(F)(F)F` [Compound P49], the EC50 (rgRSV224 virus; [3]) was 2.1 nM and the “SI CC50/EC50” value (rgRSV224 virus; Table 2) was over 34306.

With `O=c1n(Cc2cc3nc(Cl)ccc3n2CCCCO)c2cnccc2n1CC(F)(F)F` [Compound P50] the EC50 (rgRSV224 virus; [3]) was 10.1 nM and the “SI CC50/EC50” value (rgRSV224 virus; Table 2) was over 4946.

For `CS(=O)(=O)CCCn1c(Cn2c(=O)n(CC(F)(F)F)c3ccncc32)cc2nc(Cl)ccc21` [Compound P52], the EC50 (rgRSV224 virus; [3]) was 0.84 nM and the “SI CC50/EC50” value (rgRSV224 virus; Table 2) was over 119028.

With `N#CCCCn1c(Cn2c(=O)n(C3CC3)c3ccncc32)cc2nc(Cl)ccc21` [Compound P53] the EC50 (rgRSV224 virus; [3]) was 15.8 nM and the “SI CC50/EC50” value (rgRSV224 virus; Table 2) was over 6232.
